Experimental data: ChEMBL document CHEMBL1148572, “1-((S)-2-aminopropyl)-1H-indazol-6-ol: a potent peripherally acting 5-HT2 receptor agonist with ocular hypotensive activity” (J Med Chem, 2006)

Assays:
[1] = biological target: Glutamate receptor ionotropic AMPA (Homo sapiens) (UniProt P48058+P42263+P42262+P42261); experiment: Inhibition of AMPA receptor at 100 nM; assay type: protein-complex assay
[2] = Inhibition of alpha-bungarotoxin insensitive nicotinic receptor at 10 uM
Homo sapiens = species: Homo sapiens; experiment: Inhibition of inositol triphosphate IP3 at 1 nM; assay type: functional
[3] = biological target: T1, Cysteinyl leukotriene receptor 1 (Homo sapiens) (UniProt Q9Y271); experiment: Inhibition of leukotriene D4 at 100 nM
T1 sequence (whole entry): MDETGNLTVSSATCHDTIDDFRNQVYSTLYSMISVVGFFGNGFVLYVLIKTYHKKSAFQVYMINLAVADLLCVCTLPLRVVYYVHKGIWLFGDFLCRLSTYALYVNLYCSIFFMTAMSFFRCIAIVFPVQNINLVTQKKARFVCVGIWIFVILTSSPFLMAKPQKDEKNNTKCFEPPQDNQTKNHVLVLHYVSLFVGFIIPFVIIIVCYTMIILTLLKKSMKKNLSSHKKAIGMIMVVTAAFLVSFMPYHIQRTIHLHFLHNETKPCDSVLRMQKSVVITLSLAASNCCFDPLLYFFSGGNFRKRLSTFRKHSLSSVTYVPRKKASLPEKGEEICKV

[4] = biological target: T2, Atrial natriuretic peptide receptor 1 (Homo sapiens) (UniProt P16066); experiment: Inhibition of ANP A at 10 uM
T2 sequence (whole entry): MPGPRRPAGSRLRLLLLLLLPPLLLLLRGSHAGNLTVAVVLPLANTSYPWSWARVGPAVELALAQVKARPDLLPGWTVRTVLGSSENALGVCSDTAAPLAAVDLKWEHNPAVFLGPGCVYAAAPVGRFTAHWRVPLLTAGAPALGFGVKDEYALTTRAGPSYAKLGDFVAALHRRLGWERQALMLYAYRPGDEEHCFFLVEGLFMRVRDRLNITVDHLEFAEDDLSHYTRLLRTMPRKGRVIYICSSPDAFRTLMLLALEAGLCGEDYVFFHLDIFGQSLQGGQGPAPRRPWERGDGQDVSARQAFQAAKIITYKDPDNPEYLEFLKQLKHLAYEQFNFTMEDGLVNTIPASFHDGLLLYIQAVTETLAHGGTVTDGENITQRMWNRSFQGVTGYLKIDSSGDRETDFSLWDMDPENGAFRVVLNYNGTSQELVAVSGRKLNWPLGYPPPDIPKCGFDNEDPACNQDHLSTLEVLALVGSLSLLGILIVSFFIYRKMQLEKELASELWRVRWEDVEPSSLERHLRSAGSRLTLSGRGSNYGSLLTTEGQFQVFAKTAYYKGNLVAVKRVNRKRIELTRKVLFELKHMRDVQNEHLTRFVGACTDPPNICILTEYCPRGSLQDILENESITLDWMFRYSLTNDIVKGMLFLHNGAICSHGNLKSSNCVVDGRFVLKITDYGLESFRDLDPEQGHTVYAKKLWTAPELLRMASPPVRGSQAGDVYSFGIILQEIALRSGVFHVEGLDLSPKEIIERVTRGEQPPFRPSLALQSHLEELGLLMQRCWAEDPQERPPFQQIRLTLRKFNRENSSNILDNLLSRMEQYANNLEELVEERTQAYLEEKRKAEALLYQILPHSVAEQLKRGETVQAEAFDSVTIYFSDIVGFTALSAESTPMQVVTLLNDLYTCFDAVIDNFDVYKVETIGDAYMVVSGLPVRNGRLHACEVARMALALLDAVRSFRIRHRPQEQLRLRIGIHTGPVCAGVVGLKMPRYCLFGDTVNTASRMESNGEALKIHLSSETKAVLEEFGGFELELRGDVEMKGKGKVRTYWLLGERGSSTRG

[5] = biological target: Platelet-activating factor receptor (Homo sapiens) (UniProt P25105); experiment: Inhibition of PAF at 1 nM
[6] = Half life in phosphate buffer at pH 7.4 in 25 degC; assay type: ADME
[7] = biological target: T3, 5-hydroxytryptamine receptor 2C (Rattus norvegicus, UniProt P08909); experiment: Activity against recombinant rat 5HT2C mediated intracellular calcium mobilization by FLIPR in SR3T3 cells
T3 sequence (P08909 whole entry): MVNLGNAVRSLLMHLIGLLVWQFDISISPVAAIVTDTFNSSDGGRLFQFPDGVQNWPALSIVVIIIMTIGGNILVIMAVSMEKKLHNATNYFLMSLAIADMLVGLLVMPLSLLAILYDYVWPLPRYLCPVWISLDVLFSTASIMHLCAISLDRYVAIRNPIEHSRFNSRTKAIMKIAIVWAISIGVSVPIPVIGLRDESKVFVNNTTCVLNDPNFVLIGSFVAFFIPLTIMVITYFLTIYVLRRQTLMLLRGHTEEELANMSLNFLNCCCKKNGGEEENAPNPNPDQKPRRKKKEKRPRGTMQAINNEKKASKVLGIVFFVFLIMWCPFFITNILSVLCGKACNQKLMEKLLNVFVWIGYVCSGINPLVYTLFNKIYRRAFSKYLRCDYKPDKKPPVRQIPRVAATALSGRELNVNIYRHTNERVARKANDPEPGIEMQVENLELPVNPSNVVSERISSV

[8] = biological target: 5-hydroxytryptamine receptor 5A (Homo sapiens, UniProt P47898); experiment: Inhibitory activity against 5HT5A receptor
[9] = biological target: Sodium-dependent serotonin transporter (Homo sapiens, UniProt P31645); experiment: Inhibitory activity against SERT
[10] = biological target: 5-hydroxytryptamine receptor 2B (Homo sapiens, UniProt P41595); experiment: biochemical
Sequence of 5-hydroxytryptamine receptor 2B (P41595 whole entry): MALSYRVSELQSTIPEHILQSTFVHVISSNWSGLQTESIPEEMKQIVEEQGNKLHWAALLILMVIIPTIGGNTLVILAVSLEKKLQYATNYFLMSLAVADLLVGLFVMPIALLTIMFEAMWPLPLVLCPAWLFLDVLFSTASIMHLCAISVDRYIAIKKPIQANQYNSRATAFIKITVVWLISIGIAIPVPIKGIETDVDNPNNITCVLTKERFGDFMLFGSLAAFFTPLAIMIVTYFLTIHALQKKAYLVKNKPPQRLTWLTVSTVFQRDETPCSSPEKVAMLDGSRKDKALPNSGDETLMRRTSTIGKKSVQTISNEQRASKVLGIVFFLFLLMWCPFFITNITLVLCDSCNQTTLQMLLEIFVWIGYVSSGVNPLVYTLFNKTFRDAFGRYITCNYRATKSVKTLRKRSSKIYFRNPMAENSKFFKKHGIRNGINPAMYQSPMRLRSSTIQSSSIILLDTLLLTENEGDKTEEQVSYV
Description: Displacement of [125I]DOI from cloned human 5HT2B receptor expressed in CHO cells

Sequence of 5-hydroxytryptamine receptor 5A (P47898 whole entry): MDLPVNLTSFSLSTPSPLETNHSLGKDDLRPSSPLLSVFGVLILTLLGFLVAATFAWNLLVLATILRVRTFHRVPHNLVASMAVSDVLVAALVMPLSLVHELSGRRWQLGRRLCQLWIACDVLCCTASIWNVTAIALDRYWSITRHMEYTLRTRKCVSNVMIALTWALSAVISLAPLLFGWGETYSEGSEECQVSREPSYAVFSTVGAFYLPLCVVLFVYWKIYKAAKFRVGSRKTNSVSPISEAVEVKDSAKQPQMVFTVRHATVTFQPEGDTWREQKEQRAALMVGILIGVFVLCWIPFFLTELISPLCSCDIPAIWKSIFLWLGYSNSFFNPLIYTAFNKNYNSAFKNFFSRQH
Sequence of Platelet-activating factor receptor (Homo sapiens) (P25105 whole entry): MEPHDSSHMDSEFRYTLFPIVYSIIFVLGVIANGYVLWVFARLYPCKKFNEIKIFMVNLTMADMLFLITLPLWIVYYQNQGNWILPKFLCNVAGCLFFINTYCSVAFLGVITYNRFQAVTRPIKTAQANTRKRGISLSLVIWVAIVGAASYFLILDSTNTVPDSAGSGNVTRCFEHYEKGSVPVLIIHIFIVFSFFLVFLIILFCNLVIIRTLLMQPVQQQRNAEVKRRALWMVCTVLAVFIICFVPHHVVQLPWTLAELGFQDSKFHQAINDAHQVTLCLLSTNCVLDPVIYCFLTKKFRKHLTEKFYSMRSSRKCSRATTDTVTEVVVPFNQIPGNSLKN
Sequence of Sodium-dependent serotonin transporter (P31645 whole entry): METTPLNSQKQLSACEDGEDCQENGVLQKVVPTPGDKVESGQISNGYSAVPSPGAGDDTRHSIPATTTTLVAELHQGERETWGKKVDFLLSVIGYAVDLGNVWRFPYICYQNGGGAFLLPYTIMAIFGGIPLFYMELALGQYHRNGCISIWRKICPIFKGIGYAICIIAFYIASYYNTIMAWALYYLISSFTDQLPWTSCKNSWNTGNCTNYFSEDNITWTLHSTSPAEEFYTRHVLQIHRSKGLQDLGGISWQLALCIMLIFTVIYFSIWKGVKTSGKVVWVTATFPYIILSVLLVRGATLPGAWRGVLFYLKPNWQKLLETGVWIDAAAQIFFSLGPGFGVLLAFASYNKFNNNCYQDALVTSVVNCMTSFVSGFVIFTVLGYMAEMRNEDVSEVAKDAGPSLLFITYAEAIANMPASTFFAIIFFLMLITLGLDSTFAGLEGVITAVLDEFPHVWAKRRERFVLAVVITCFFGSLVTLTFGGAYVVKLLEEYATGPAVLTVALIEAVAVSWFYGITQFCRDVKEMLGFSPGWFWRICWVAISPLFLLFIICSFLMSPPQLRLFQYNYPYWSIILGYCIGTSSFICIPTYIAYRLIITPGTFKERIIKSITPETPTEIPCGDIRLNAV

SMILES: C[C@H](N)Cn1ncc2ccc(O)cc21
- inhibition [1]: 9.45%
- inhibition [2]: 7.7%
- inhibition (Homo sapiens): 6.53%
- inhibition [3]: 7.43%
- inhibition [4]: -5.3%
- inhibition [5]: -6.53%
- T1/2 [6]: 4.6 yr
- EC50 [7]: 3.7 nM
- Ki [8]: > 10000 nM
- Ki [9]: > 10000 nM
- Ki [10]: 8.1 nM
